Measured values taken from US20230257372A1 (CHONG KUN DANG PHARMACEUTICAL CORP., priority 2020, published 2023).
Where two headings read alike, the source gives them in different places.

What was measured:
human recombinant HDAC6 = molecular target: T1, human recombinant HDAC6 (Homo sapiens, UniProt Q9UBN7); assay: HDAC6 enzyme activity inhibition (HDAC Fluorimetric Drug Discovery Kit); format: biochemical
T1 construct: purchased Calbiochem Inc. 382180
T1 sequence (Q9UBN7 1-1215): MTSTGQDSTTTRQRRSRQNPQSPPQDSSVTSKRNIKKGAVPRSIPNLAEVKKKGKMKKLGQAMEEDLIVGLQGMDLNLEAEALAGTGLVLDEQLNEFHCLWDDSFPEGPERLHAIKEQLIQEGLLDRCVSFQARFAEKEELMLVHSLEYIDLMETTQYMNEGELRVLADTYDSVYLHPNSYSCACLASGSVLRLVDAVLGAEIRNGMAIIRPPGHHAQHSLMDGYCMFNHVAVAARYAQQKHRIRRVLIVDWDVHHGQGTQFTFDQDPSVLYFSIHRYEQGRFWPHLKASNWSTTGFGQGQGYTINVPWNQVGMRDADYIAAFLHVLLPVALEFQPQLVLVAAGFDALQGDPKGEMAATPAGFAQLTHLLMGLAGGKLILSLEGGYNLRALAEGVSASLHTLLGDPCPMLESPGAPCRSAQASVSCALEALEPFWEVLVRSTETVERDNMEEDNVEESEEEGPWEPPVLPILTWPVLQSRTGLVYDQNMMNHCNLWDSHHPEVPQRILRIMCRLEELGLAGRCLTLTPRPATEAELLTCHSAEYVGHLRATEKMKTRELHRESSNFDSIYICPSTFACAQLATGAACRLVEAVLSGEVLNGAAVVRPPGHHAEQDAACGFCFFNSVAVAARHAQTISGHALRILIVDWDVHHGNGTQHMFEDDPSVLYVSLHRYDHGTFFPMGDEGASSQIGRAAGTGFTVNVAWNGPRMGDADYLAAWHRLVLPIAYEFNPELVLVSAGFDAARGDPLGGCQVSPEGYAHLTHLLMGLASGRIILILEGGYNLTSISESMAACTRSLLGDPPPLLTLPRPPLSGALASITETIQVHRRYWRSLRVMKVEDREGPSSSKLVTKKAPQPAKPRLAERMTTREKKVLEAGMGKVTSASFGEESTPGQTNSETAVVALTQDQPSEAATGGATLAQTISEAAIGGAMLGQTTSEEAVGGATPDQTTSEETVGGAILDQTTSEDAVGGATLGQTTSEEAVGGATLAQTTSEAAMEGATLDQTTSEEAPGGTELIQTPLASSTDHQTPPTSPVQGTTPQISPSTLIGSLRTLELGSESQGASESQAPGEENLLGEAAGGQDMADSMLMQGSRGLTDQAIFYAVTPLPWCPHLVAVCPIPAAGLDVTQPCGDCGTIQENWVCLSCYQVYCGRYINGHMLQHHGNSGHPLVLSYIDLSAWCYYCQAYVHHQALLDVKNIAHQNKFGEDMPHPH
Method in brief: (§1)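 Enzyme at 0.3 µg per well was reacted with 10 μM fluorogenic substrate in presence of 5-fold diluted compound, 30° C for 60 min.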

human recombinant HDAC1 = molecular target: T2, human recombinant HDAC1 (Homo sapiens, UniProt Q13547); assay: HDAC1 enzyme activity inhibition (HDAC Fluorimetric Drug Discovery Kit); format: biochemical; settings: read-out: HDAC1
T2 construct: purchased Enzo Life Science, Inc. BML-SE456
T2 sequence (Q13547 whole entry): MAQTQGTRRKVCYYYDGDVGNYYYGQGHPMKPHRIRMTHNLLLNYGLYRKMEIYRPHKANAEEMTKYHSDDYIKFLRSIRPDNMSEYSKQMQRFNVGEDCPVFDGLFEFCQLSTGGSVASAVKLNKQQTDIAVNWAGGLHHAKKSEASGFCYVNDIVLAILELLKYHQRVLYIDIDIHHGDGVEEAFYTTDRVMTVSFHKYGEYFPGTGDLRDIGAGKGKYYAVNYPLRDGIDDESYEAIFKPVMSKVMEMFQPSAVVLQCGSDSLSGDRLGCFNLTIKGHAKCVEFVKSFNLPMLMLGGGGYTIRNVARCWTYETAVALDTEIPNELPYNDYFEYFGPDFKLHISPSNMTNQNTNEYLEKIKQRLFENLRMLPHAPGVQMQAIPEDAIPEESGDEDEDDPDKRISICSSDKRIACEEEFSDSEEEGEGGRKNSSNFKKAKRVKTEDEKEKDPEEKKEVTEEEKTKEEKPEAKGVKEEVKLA
Method in brief: as §1

[1] = human recombinant HDAC6, IC50 calculated with GraphPad Prism
[2] = human recombinant HDAC1, IC50 calculated with GraphPad Prism
[3] = human recombinant HDAC6, same protocol as HDAC1
[4] = human recombinant HDAC1, Fluor de Lys substrate, 30° C. 60 minutes

| SMILES | HDAC6 selectivity (fold) (human recombinant HDAC6; HDAC1 IC50 / HDAC6 IC50) | IC50 (human recombinant HDAC6; [1]) [nM] | IC50 (human recombinant HDAC1; [2]) [nM] | HDAC6 selectivity (fold) (human recombinant HDAC6; HDAC6 over HDAC1) | IC50 (human recombinant HDAC6; [3]) [nM] | IC50 (human recombinant HDAC1; [4]) [nM] |
| --- | --- | --- | --- | --- | --- | --- |
| FC(F)c1nnc(-c2ccc(Cn3cc(C4(F)COC4)nn3)nc2)o1 [Compound 4280, 2-(difluoromethyl)-5-(6-((4-(3-fluorooxetan-3-yl)-1H-1,2,3-triazol-1-yl)methyl)pyridin-3-yl)-1,3,4-oxadiazole] | 292 | 171 | > 50000 |  |  |  |
| CCN1CC(c2cccc(-c3cn(Cc4ccc(-c5nnc(C(F)F)o5)cc4F)nn3)c2)C1 [Compound 4506, 2-(difluoromethyl)-5-(4-((4-(3-(1-ethylazetidin-3-yl)phenyl)-1H-1,2,3-triazol-1-yl)methyl)-3-fluorophenyl)-1,3,4-oxadiazole] |  |  |  | 2262 | 22.1 | > 50000 |
| Fc1cc(-c2nnc(C(F)F)o2)ccc1Cn1cc(-c2csc(CN3CCCC3)c2)nn1 [Compound 18187, 2-(difluoromethyl)-5-(3-fluoro-4-((4-(5-(pyrrolidin-1-ylmethyl)thiophen-3-yl)-1H-1,2,3-triazol-1-yl)methyl)phenyl)-1,3,4-oxadiazole] |  |  |  | 605 | 82.6 | > 50000 |
| CN1CCc2ccc(-c3cn(Cc4ncc(-c5nnc(C(F)F)o5)cc4F)nn3)cc2C1 [Compound 19002, 2-(difluoromethyl)-5-(5-fluoro-6-((4-(2-methyl-1,2,3,4-tetrahydroisoquinolin-7-yl)-1H-1,2,3-triazol-1-yl)methyl)pyridin-3-yl)-1,3,4-oxadiazole] |  |  |  | 587 | 85.1 | > 50000 |
| CN1CCN(c2cccc(-c3cn(Cc4ncc(-c5nnc(C(F)F)o5)cc4F)nn3)c2)CC1 [Compound 18924, 2-(difluoromethyl)-5-(5-fluoro-6-((4-(3-(4-methylpiperazin-1-yl)phenyl)-1H-1,2,3-triazol-1-yl)methyl)pyridin-3-yl)-1,3,4-oxadiazole] |  |  |  | 625 | 80 | > 50000 |
| Fc1cc(-c2cn(Cc3ncc(-c4nnc(C(F)F)o4)cc3F)nn2)ccc1CN1CCC1 [Compound 18947, 2-(6-((4-(4-(azetidin-1-ylmethyl)-3-fluorophenyl)-1H-1,2,3-triazol-1-yl)methyl)-5-fluoropyridin-3-yl)-5-(difluoromethyl)-1,3,4-oxadiazole] |  |  |  | 1262 | 39.6 | > 50000 |
| CCN1CCN(Cc2ccccc2-c2cn(Cc3ccc(-c4nnc(C(F)F)o4)cc3F)nn2)CC1 [Compound 4588, 2-(difluoromethyl)-5-(4-((4-(2-((4-ethylpiperazin-1-yl)methyl)phenyl)-1H-1,2,3-triazol-1-yl)methyl)-3-fluorophenyl)-1,3,4-oxadiazole] |  |  |  | 229 | 218 | > 50000 |
| CN(C)Cc1cccc(-c2cn(Cc3ccc(-c4nnc(C(F)F)o4)cn3)nn2)c1 [Compound 3915, 1-(3-(1-((5-(5-(difluoromethyl)-1,3,4-oxadiazol-2-yl)pyridin-2-yl)methyl)-1H-1,2,3-triazol-4-yl)phenyl)-N,N-dimethylmethanamine] | 1308 | 38.2 | > 50000 |  |  |  |
| CC(=O)N1CCC(Nc2cccc(-c3cn(Cc4ccc(-c5nnc(C(F)F)o5)cc4F)nn3)c2F)CC1 [Compound 4433, 1-(4-((3-(1-(4-(5-(difluoromethyl)-1,3,4-oxadiazol-2-yl)-2-fluorobenzyl)-1H-1,2,3-triazol-4-yl)-2-fluorophenyl)amino)piperidin-1-yl)ethan-1-one] | 1510 | 33.1 | > 50000 |  |  |  |
| FC(F)c1nnc(-c2ccc(Cn3cc(-c4cccc5[nH]cc(CN6CCOCC6)c45)nn3)nc2)o1 [Compound 4023, 4-((4-(1-((5-(5-(difluoromethyl)-1,3,4-oxadiazol-2-yl)pyridin-2-yl)methyl)-1H-1,2,3-triazol-4-yl)-1H-indol-3-yl)methyl)morpholine] | 32 | 1560 | > 50000 |  |  |  |
